Like-named read-outs stand apart in the source and are kept apart here.
Key:
[1] = target: T1, mouse MLKL(179-464) pseudokinase domain (Mus musculus, UniProt Q9D2Y4); assay: Surface Plasmon Resonance (SPR) binding, mouse MLKL
T1 construct: made in house; host or cells: Sf21 insect cells
T1 sequence (Q9D2Y4 179-464 isoform Q9D2Y4-2): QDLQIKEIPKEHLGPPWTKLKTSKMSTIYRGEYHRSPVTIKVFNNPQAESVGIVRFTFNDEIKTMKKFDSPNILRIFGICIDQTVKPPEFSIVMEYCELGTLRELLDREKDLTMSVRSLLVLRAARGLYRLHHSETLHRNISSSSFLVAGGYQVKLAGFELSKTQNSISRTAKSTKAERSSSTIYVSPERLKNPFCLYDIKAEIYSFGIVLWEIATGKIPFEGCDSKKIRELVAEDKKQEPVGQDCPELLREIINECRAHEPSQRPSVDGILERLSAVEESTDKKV
Excerpt: Double His-tagged MLKL and an unrelated negative control reference protein were immobilized on an NTA Capture chip charged with Ni^2+ according to manufacturer's instructions. In some instances, double His-tagged proteins were captured via Ni^2+/NTA chelation on a series S sensor chip containing carboxymethylated dextran surface pre-immobilized with nitrilotriacetic acid (NTA). The surface was then activated and enhanced with NHS/EDC mixture and His captured proteins covalently coupled to the surface as succinamide esters. Ethanolamine was injected later to block any unreacted esters. Unbound Ni^2+ and non-covalently bound proteins were eluted by EDTA injections.
Typical immobilization levels were 2000-3000 Response Units (RU). Flow cell 1 was left blank as a reference surface. Immobilization experiments were carried out at 25° C. in a running buffer containing 20 mM HEPES (pH 8.0), 200 mM NaCl and 0.005% (v/v) surfactant P20.
Binding experiments were carried out in Running Buffer+2% v/v DMSO. […] Data were reduced, solvent corrected, and double referenced by Biacore T200 Evaluation Software. Data were fit globally to a two state kinetic interaction model and the Kd determined from the (kd/ka) ratio. A 1:1 binding stoichiometry was inferred from the steady state binding curves and the maximum observed Response Unit (RU) levels.

[2] = test system: U937 human histiocytic leukemia cell line; assay: Screening for inhibition of TSQ induced necroptosis, 96 well plate format; format: cell-based; conditions: U-937, 48 h
Procedure: Screening Compounds for Inhibition of TSQ Induced Necroptosis, 96 Well Plate Format.
U937 human histiocytic leukemia cell line.
35,000 per well in 120 μL of media, counted and plated immediately prior to addition of inhibitor and death stimuli. Final well volume of 150 μL after addition of compounds and death stimuli
HTRPMI (WEHI Media kitchen, contains L-Glutamine and penicillin, streptomycin)—supplemented with 7.4% v/v FCS (Gibco, Precision Plus. Lot #1221437)
48 hours following addition of compounds and death stimuli
DMSO Final Concentration (% v/v): 0.2%
Compounds that are in the Death Stimulation Cocktail and their Final Concentrations: • hTNF-Fc (100 ng/ml)—produced by Silke lab, WEHI • Compound A (500 nM)—Smac mimetic, Tetralogic • Q-VD-OPh (10 μM)—MP Biomedicals
Analysis: • Cells treated with PI staining (1 μg/ml) and analysed by flow cytometry
TNF; S: Smac mimetic; Q: Q-VD-OPh): TSQ treatment ensures that cells specifically undergo necroptotic cell death. TNF activates the TNF receptor, Smac mimetic direct the signal away from proinflammatory signaling and toward the RIP1/RIP3-mediated cell death pathways, and Q-VD-OPh ensures that the apoptotic response is blocked leaving only the programmed necrosis response. The compounds' activity (solution in DMSO) tested in this TSQ-induced assay is evaluated by measuring their ability to block cell death as measured by flow cytometry after PI staining.

U937 cells = assay: Counter screen: cell viability without TSQ cocktail (off target effect); format: cell-based; conditions: U937 without TSQ cocktail
Procedure: In parallel, all compounds are tested for their ability to affect cell viability. The same U937 cells are treated with compound in DMSO without the TSQ cocktail. This counter screen enables evaluation of off-target effects. In this case gain, cell viability is measured by flow cytometry after PI staining.

[3] = target: T1, mouse MLKL(179-464) pseudokinase domain; assay: STD NMR nucleotide competition, mouse MLKL; format: binding; conditions: 200 μM compound, 200 μM nucleotide, 2 μM mouse MLKL(179-464)
Procedure: (§1) Nucleotides were dissolved in NMR buffer (20 mM HEPES, pH 7.5, 200 mM NaCl, 90% D2O, 10% H2O) at a final concentration of 200 μM in each sample of STD experiments. Three different samples were prepared for each nucleotide: (1) ATP or ADP with protein buffer added as equivalent volume of protein containing samples (2) ATP or ADP with MLKL pseudokinase domain at a final concentration of 2 μM (3) ATP or ADP with MLKL pseudokinase domain (2 μM) with test compound at 200 μM. […] Saturation of the protein resonances was achieved by a 4 s train of Gaussian pulses centred at −0.5 ppm. For the reference spectra, a similar saturation pulse was applied at a frequency centred 20,000 Hz off-resonance. A 15 ms T2-spin-lock period was employed before acquisition to allow the residual protein signal to decay. NMR data were processed in TOPSPIN version 3.2 (Bruker BioSpin).

[4] = target: T2, human MLKL(190-471) pseudokinase domain (Homo sapiens, UniProt Q8NB16); assay: STD NMR nucleotide competition, human MLKL; format: binding; design: His6 (pFastBac HTb, TEV-cleavable) (N, cleaved yes); made in house; host or cells: Sf21 insect cells; conditions: 200 μM compound, 200 μM nucleotide, 2 μM human MLKL(190-471)
T2 sequence (Q8NB16 190-471): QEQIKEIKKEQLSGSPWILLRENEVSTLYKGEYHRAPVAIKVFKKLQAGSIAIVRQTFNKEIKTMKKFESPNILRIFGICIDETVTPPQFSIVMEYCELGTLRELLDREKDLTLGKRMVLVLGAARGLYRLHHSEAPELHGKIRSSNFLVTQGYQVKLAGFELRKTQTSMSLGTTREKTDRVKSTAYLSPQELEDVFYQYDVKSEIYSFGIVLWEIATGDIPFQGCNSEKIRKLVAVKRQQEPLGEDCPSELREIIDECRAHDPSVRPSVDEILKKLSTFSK
Procedure: as §1

## CN(c1ccc(NC(=O)Nc2ccc(OC(F)(F)F)cc2)cc1)c1ccnc(Nc2cccc(S(N)(=O)=O)c2)n1 [Compound 1, 3-((4-(methyl(4-(3-(4-(trifluoromethoxy)phenyl)ureido)phenyl)amino)pyrimidin-2-yl)amino)benzenesulfonamide]
[1]
  Kd: 9300 nM
[2]; read-out: Cell based assay Average
  IC50: 69.4 nM
[2]; read-out: Cell based assay IC50
  IC50: 25.4 nM
U937 cells; compound at 500 nM
  Off target effect (% cell death) at 500 nM: <20%
U937 cells; compound at 1 uM
  Off target effect (% cell death) at 1 uM: <20%
U937 cells; compound at 5 uM
  Off target effect (% cell death) at 5 uM: 60%
U937 cells; compound at 10 uM
  Off target effect (% cell death) at 10 uM: 79%
[3]
  competition with ATP and ADP for binding (STD NMR): can compete with (i) ATP and (ii) ADP
[4]
  competition with ATP and ADP for binding (STD NMR): can compete with (i) ATP and (ii) ADP
